Measured values published in US12129261B2, “Crystalline forms of a MCL-1 inhibitor, a process for their preparation and pharmaceutical compositions containing them” (LES LABORATOIRES SERVIER, priority 2018, dated 2024).

What was measured:
Assay type in all cases: physicochemical
[1] = Stability studies of crystalline Form A (storage, post-storage HPLC); settings: for (i) Polymorphic stability / (ii) chemical stability, drug substance content determined by LC: polyethylene bag in sealed quadruple laminated foil bag
Description: For all storage conditions and storage periods, 1.2 g of crystalline Form A of Compound A obtained according to the process of Example 15 were introduced in a specific packaging for post-storage HPLC analysis.

Solubility in water = settings: pH 7.5, water
[2] = Water content by coulometric titration
Method: The water content of crystalline Form M of Compound A obtained according to any one of the processes of Examples 1 to 6 was determined by coulometric titration using a Metrohm Coulometer composed of a 774 oven sample processor, a 774 SC controller, 831 KF coulometer and a 846 Dosing interface with Tiamo 1.2 software About 10 mg of accurately weighed micronized drug substance were introduced in vials heated for 10 minutes at 140° C. The water content of the powder was also determined by the coulometric method.

[3] = Stability studies of crystalline Form M (storage, XRPD and post-storage HPLC); settings: for stability towards temperature and humidity: 6-month storage period under various conditions
Method: For all storage conditions and storage periods, 20 mg of crystalline Form M of Compound A obtained according to any one of the processes of Examples 1 to 6 were introduced in a 30-mL vial for post-storage HPLC analysis (packaging: PVO=Opened glass container; VRAC PA=Double polyethylene bag).

[4] = Hygroscopicity by dynamic vapor sorption (DVS)
Method: The hygroscopicity of crystalline Form M of Compound A obtained according to any one of the processes of Examples 1 to 6 was assessed using the dynamic vapor sorption (DVS) technique. 5 to 10 mg of the drug substance test sample were accurately weighed into a DVS sample pan working at 25° C. under controlled humidity. The mass of the sample was recorded at 50% RH (relative humidity) until reaching a stable value. Thereafter the mass variation was recorded between 50% RH and 90% RH at a rate of 10% per hour. Mass variations were also recorded between 90% RH and 0% RH and from 0% RH back to 50% RH. The relative humidity was maintained constant when it reached either 0 or 90% RH until the mass variation was less than 0.002% per minute within a limit of lime of 15 hours. An increase in sample mass of approximately 0.4% was recorded by DVS analysis when a sample was exposed to relative humidities from 50% to 90% at 25° C.

[5] = 25° C./60% RH, 24 months of storage
[6] = 30° C./75% RH, 1 month of storage
[7] = 40° C./75% RH, 6 months of storage
[8] = 50° C./75% RH, 1 month of storage
[9] = 25° C. 60% RH, VRAC PA, 12 months
[10] = 30° C. 65% RH, VRAC PA, 12 months
[11] = 40° C. 75% RH, VRAC PA, 3 months
[12] = 40° C. 75% RH, VRAC PA, 6 months

## COc1ccccc1-c1nccc(COc2ccccc2CC(Oc2ncnc3sc(-c4ccc(F)cc4)c(-c4ccc(OCCN5CCN(C)CC5)c(Cl)c4C)c23)C(=O)O)n1 (centres unmarked) [crystalline Form A of Compound A, 2-{[5-{3-Chloro-2-methyl-4-[2-(4-methylpiperazin-1-yl)ethoxy]phenyl}-6-(4-fluorophenyl)thieno[2,3-d]pyrimidin-4-yl]oxy}-3-(2-{[2-(2-methoxyphenyl)pyrimidin-4-yl]methoxy}phenyl)propanoic acid]
[1]; 24-month storage period under 25° C./60% RH
  stability on storage: remains stable
[1]; [5]
  (i) Polymorphic stability: (i) Form A
  (ii) chemical stability, drug substance content determined by LC: (ii) 98.8% after % m/m
[1]; [6]
  (i) Polymorphic stability: (i) Form A
  (ii) chemical stability, drug substance content determined by LC: (ii) 99.3% after % m/m
[1]; [7]
  (i) Polymorphic stability: (i) Form A
  (ii) chemical stability, drug substance content determined by LC: (ii) 99.5% after % m/m
[1]; [8]
  (i) Polymorphic stability: (i) Form A
  (ii) chemical stability, drug substance content determined by LC: (ii) 99.3% after % m/m
[1]; several months storage period under more severe conditions
  stability towards temperature and humidity: still remains stable

## COc1ccccc1-c1nccc(COc2ccccc2CC(Oc2ncnc3sc(-c4ccc(F)cc4)c(-c4ccc(OCCN5CCN(C)CC5)c(Cl)c4C)c23)C(=O)O)n1 [Compound A, (2R)-2-{[(5Sa)-5-{3-chloro-2-methyl-4-[2-(4-methylpiperazin-1-yl)ethoxy]phenyl}-6-(4-fluorophenyl)thieno[2,3-d]pyrimidin-4-yl]oxy}-3-(2-{[2-(2-methoxyphenyl)pyrimidin-4-yl]methoxy}phenyl)propanoic acid]
Solubility in water
  solubility: < 1 µg/mL

## COc1ccccc1-c1nccc(COc2ccccc2CC(Oc2ncnc3sc(-c4ccc(F)cc4)c(-c4ccc(OCCN5CCN(C)CC5)c(Cl)c4C)c23)C(=O)O)n1 (centres unmarked) [Form MH, 2-{[5-{3-Chloro-2-methyl-4-[2-(4-methylpiperazin-1-yl)ethoxy]phenyl}-6-(4-fluorophenyl)thieno[2,3-d]pyrimidin-4-yl]oxy}-3-(2-{[2-(2-methoxyphenyl)pyrimidin-4-yl]methoxy}phenyl)propanoic acid]
[2]; coulometric method, powder after maturation in water
  water content: 29.3%

## COc1ccccc1-c1nccc(COc2ccccc2CC(Oc2ncnc3sc(-c4ccc(F)cc4)c(-c4ccc(OCCN5CCN(C)CC5)c(Cl)c4C)c23)C(=O)O)n1 (centres unmarked) [crystalline Form M of Compound A, 2-{[5-{3-chloro-2-methyl-4-[2-(4-methylpiperazin-1-yl)ethoxy]phenyl}-6-(4-fluorophenyl)thieno[2,3-d]pyrimidin-4-yl]oxy}-3-(2-{[2-(2-methoxyphenyl)pyrimidin-4-yl]methoxy}phenyl)propanoic acid]
[3]
  stability towards temperature and humidity: very stable
[3]; listed as Crystalline Form M of Compound A
  stability towards temperature and humidity: remains stable
[3]; 12-month storage period under 25° C./60% RH or 30° C./65% RH
  stability on storage: remains stable
[3]; 25° C. 60% RH, VRAC PA, 3 months
  (ii) chemical stability, drug substance content determined by LC: (ii) 100.0% m/m
[3]; 25° C. 60% RH, VRAC PA, 6 months
  (ii) chemical stability, drug substance content determined by LC: (ii) 99.7% m/m
[3]; [9]
  (i) Polymorphic stability: (i) Form M
  (ii) chemical stability, drug substance content determined by LC: (ii) 98.9% m/m
[3]; 25° C. 90% RH, PVO, 3 months
  (i) Polymorphic stability: (i) Form M
  (ii) chemical stability, drug substance content determined by LC: (ii) 99.7% m/m
[3]; 25° C. 90% RH, PVO, 6 weeks
  (i) Polymorphic stability: (i) Form M
  (ii) chemical stability, drug substance content determined by LC: (ii) 100.0% m/m
[3]; 30° C. 65% RH, VRAC PA, 3 months
  (ii) chemical stability, drug substance content determined by LC: (ii) 99.6% m/m
[3]; 30° C. 65% RH, VRAC PA, 6 months
  (ii) chemical stability, drug substance content determined by LC: (ii) 100.0% m/m
[3]; [10]
  (i) Polymorphic stability: (i) Form M
  (ii) chemical stability, drug substance content determined by LC: (ii) 98.8% m/m
[3]; [11]
  (i) Polymorphic stability: (i) Form M
  (ii) chemical stability, drug substance content determined by LC: (ii) 99.9% m/m
[3]; [12]
  (i) Polymorphic stability: (i) Form M
  (ii) chemical stability, drug substance content determined by LC: (ii) 100.0% m/m
[3]; 50° C. 75% RH, PVO, 3 months
  (i) Polymorphic stability: (i) Form M
  (ii) chemical stability, drug substance content determined by LC: (ii) 100.1% m/m
[3]; 50° C. 75% RH, PVO, 6 weeks
  (i) Polymorphic stability: (i) Form M
  (ii) chemical stability, drug substance content determined by LC: (ii) 100.2% m/m
[2]; vials heated for 10 minutes at 140° C.
  water content: 0.1 % in weight
[4]
  hygroscopicity according to the European Pharmacopoeia: slightly hygroscopic
[4]; DVS cycle 50-90-0-50% RH
  change to the crystalline form in X-ray powder diffractogram after water sorption/desorption/sorption cycle: no change
[4]; between 0% to 50% RH, 25° C.
  increase in sample mass (DVS): approximately 0.1%
[4]; between 90% to 0% RH, 25° C.
  decrease in sample mass (DVS): approximately 0.5%
[4]; relative humidities from 50% to 90% at 25° C.
  increase in sample mass (DVS): approximately 0.4%
